Data published in patent US9511058B2, “Methods for using carboxamide, sulfonamide and amine compounds” (Rigel Pharmaceuticals, Inc., priority 2010, dated 2016).

target: AMPK; test: AMPK activation, enzyme-linked immunosorbent assay; assay type: biochemical; details: compounds of Table 1 (Table 6)
Procedure: Compounds of Table 1 were assayed for their ability to activate AMPK using an enzyme-linked immunosorbent assay.
Compounds of Table 2 were assayed for their ability to activate AMPK using an enzyme-linked immunosorbent assay.
Compounds of Table 3 were assayed for their ability to activate AMPK using an enzyme-linked immunosorbent assay.
Compounds of Table 4 were assayed for their ability to activate AMPK using an enzyme-linked immunosorbent assay.
Compounds of Table 5 were assayed for their ability to activate AMPK using an enzyme-linked immunosorbent assay.

Question: Which EC50 does the source give for O=C(NC1CCN(S(=O)(=O)c2cccnc2)CC1)c1cc2ccc(OC3CCN(c4ccc(OC(F)(F)F)cc4)CC3)cc2o1 [1-108, N-(1-(pyridin-3-ylsulfonyl)piperidin-4-yl)-6-(1-(4-(trifluoromethoxy)phenyl)piperidin-4-yloxy)benzofuran-2-carboxamide] here?
Answer: Its EC50 is 100 to 500 nM.

Question: With O=C(N[C@H]1CCN(Cc2ccncc2)C1)c1cc2cc(OC3CCN(Cc4ccc(Cl)cc4)CC3)ccc2o1 [1-129, (S)-5-(1-(4-chlorobenzyl)piperidin-4-yloxy)-N-(1-(pyridin-4-ylmethyl)pyrrolidin-3-yl)benzofuran-2-carboxamide] as the compound, how does the EC50 read?
Answer: Its EC50 is 1000 to 5000 nM.

Question: For O=C(NC1CCN(Cc2ccncc2)CC1)c1cccc(OC2CCN(c3ccc(C(F)(F)F)cc3)CC2)n1 [1-43, N-(1-(pyridin-4-ylmethyl)piperidin-4-yl)-6-(1-(4-(trifluoromethyl)phenyl)piperidin-4-yloxy)picolinamide], which EC50 is on record?
Answer: The EC50 was 1000 to 5000 nM.

Question: Which EC50 does the source give for CC(C)(C)OC(=O)N1CCC(NC(=O)c2cc3cc(OC4CCN(c5ccc(C(F)(F)F)cc5)CC4)ccc3s2)CC1 [1-149, tert-butyl 4-(5-(1-(4-(trifluoromethyl)phenyl)piperidin-4-yloxy)benzo[b]thiophene-2-carboxamido)piperidine-1-carboxylate] here?
Answer: The EC50 was < 100 nM.

Question: With Cc1c(C(=O)NC2CCN(Cc3ccc(F)cc3)CC2)oc2cc(OC3CCN(c4ccc(C(F)(F)F)cc4)CC3)ccc12 [1-63, N-(1-(4-fluorobenzyl)piperidin-4-yl)-3-methyl-6-(1-(4-(trifluoromethyl)phenyl)piperidin-4-yloxy)benzofuran-2-carboxamide] as the compound, how does the EC50 read?
Answer: The EC50 was < 100 nM.

Question: How did the EC50 turn out when Cc1c(C(=O)NC2CCN(Cc3ccccn3)CC2)oc2cc(OC3CCN(c4ccc(C(F)(F)F)cc4)CC3)ccc12 [1-68, 3-methyl-N-(1-(pyridin-2-ylmethyl)piperidin-4-yl)-6-(1-(4-(trifluoromethyl)phenyl)piperidin-4-yloxy)benzofuran-2-carboxamide] was run?
Answer: Its EC50 is < 100 nM.

Question: Which EC50 does the source give for O=C(N[C@@H]1CCNC1)c1ccc(OC2CCN(c3ccc(C(F)(F)F)cc3)CC2)cn1 [1-24, (R)-N-(pyrrolidin-3-yl)-5-(1-(4-(trifluoromethyl)phenyl)piperidin-4-yloxy)picolinamide] here?
Answer: The EC50 was 5000 to 10000 nM.

Question: For O=C(NC1CCNCC1)c1cc2ccc(OC3CCN(c4ccc(OC(F)(F)F)cc4)CC3)cc2o1 [1-83, N-(piperidin-4-yl)-6-(1-(4-(trifluoromethoxy)phenyl)piperidin-4-yloxy)benzofuran-2-carboxamide], which EC50 is on record?
Answer: Its EC50 is 100 to 500 nM.

Question: O=C(NC1CCN(Cc2ccc(N3CCOCC3)cc2)CC1)c1ccc(OC2CCN(c3ccc(C(F)(F)F)cc3)CC2)cn1 [1-40, N-(1-(4-morpholinobenzyl)piperidin-4-yl)-5-(1-(4-(trifluoromethyl)phenyl)piperidin-4-yloxy)picolinamide] was tested. Which EC50 did it give?
Answer: The EC50 was < 100 nM.

Question: How did the EC50 turn out when N#Cc1ccc(CN2CCC(Oc3ccc4oc(C(=O)NC5CCN(Cc6ccccc6)CC5)cc4c3)CC2)cc1 [1-70, N-(1-benzylpiperidin-4-yl)-5-(1-(4-cyanobenzyl)piperidin-4-yloxy)benzofuran-2-carboxamide] was run?
Answer: The EC50 was < 100 nM.

Question: Which EC50 does the source give for O=C(NC1CCN(Cc2ccncc2)CC1)c1cc2cc(OC3CCN(c4ccc(OC(F)(F)F)cc4)CC3)ccc2s1 [1-137, N-(1-(pyridin-4-ylmethyl)piperidin-4-yl)-5-(1-(4-(trifluoromethoxy)phenyl)piperidin-4-yloxy)benzo[b]thiophene-2-carboxamide] here?
Answer: Its EC50 is < 100 nM.

Question: For CC(C)(C)OC(=O)N1CC[C@@H](NC(=O)c2ccc(OC3CCN(c4ccc(C(F)(F)F)cc4)CC3)cn2)C1 [1-23, (R)-tert-butyl 3-(5-(1-(4-(trifluoromethyl)phenyl)piperidin-4-yloxy)picolinamido)pyrrolidine-1-carboxylate], which EC50 is on record?
Answer: Its EC50 is 100 to 500 nM.

Question: With O=C(NC1CCN(Cc2ccc(F)cc2)CC1)c1ccnc(OC2CCN(c3ccc(C(F)(F)F)cc3)CC2)c1 [1-22, N-(1-(4-fluorobenzyl)piperidin-4-yl)-2-(1-(4-(trifluoromethyl)phenyl)piperidin-4-yloxy)isonicotinamide] as the compound, how does the EC50 read?
Answer: Its EC50 is 1000 to 5000 nM.

Question: O=S(=O)(NC1CCN(Cc2cccc(C(F)(F)F)c2)CC1)c1ccc(OC2CCN(c3ccc(C(F)(F)F)cc3)CC2)nc1 [1-59, N-(1-(3-(trifluoromethyl)benzyl)piperidin-4-yl)-6-(1-(4-(trifluoromethyl)phenyl)piperidin-4-yloxy)pyridine-3-sulfonamide] was tested. Which EC50 did it give?
Answer: Its EC50 is 100 to 500 nM.

Question: For CN(C(=O)c1cc2cc(OC3CCN(c4ccc(C(F)(F)F)cc4)CC3)ccc2o1)C1CCN(Cc2cccnc2)CC1 [1-109, N-methyl-N-(1-(pyridin-3-ylmethyl)piperidin-4-yl)-5-(1-(4-(trifluoromethyl)phenyl)piperidin-4-yloxy)benzofuran-2-carboxamide], which EC50 is on record?
Answer: The EC50 was < 100 nM.

Question: For N#Cc1ccc(CN2CCC(NC(=O)c3ccc(OC4CCN(c5ccc(C(F)(F)F)cc5)CC4)cn3)CC2)cc1 [1-4, N-(1-(4-cyanobenzyl)piperidin-4-yl)-5-(1-(4-(trifluoromethyl)phenyl)piperidin-4-yloxy)picolinamide], which EC50 is on record?
Answer: The EC50 was < 100 nM.

same assay, conditions: compounds of Table 2 (Table 7)

Question: With N#Cc1cccc(S(=O)(=O)N2CCC(NC(=O)c3ccc4[nH]c5c(c4c3)CN(Cc3ccc(C(F)(F)F)cc3)CC5)CC2)c1 [2-29, N-(1-(3-cyanophenyl-sulfonyl)piperidin-4-yl)-2-(4-(trifluoro-methyl)benzyl)-2,3,4,5-tetrahydro-1H-pyrido[4,3-b]indole-8-carboxamide] as the compound, how does the EC50 read?
Answer: The EC50 was 1000 to 5000 nM.

Question: O=C(NC1CCN(Cc2cocn2)CC1)c1ccc2[nH]c3c(c2c1)CN(Cc1ccc(C(F)(F)F)cc1)CC3 [2-54, N-(1-(oxazol-4-ylmethyl)piperidin-4-yl)-2-(4-(trifluoromethyl)benzyl)-2,3,4,5-tetrahydro-1H-pyrido [4,3-b]indole-8-carboxamide] was tested. Which EC50 did it give?
Answer: The EC50 was < 500 nM.

Question: O=C(NC1CCN(CCc2ccccc2)CC1)c1ccc2[nH]c3c(c2c1)CN(Cc1ccc(C(F)(F)F)cc1)CC3 [2-14, N-(1-phenethyl-piperidin-4-yl)-2-(4-(trifluoromethyl)benzyl)-2,3,4,5-tetrahydro-1H-pyrido[4,3-b]indole-8-carboxamide] was tested. Which EC50 did it give?
Answer: The EC50 was < 500 nM.

Question: For O=C(NC1CCN(C(=O)c2cccnc2)CC1)c1ccc2[nH]c3c(c2c1)CN(c1ccc(F)cc1)CC3 [2-40, 2-(4-fluorophenyl)-N-(1-nicotinoylpiperidin-4-yl)-2,3,4,5-tetrahydro-1H-pyrido [4,3-b]indole-8-carboxamide], which EC50 is on record?
Answer: The EC50 was > 100000 nM.

Question: N#Cc1ccc(CN2CCC(NC(=O)c3ccc4[nH]c5c(c4c3)CN(Cc3ccccc3)CC5)CC2)cc1 [2-4, 2-benzyl-N-(1-(4-cyanobenzyl)piperidin-4-yl)-2,3,4,5-tetrahydro-1H-pyrido[4,3-b]indole-8-carboxamide] was tested. Which EC50 did it give?
Answer: The EC50 was 1000 to 5000 nM.

Question: O=C(NC1CCN(S(=O)(=O)c2cccc(C(F)(F)F)c2)CC1)c1ccc2[nH]c3c(c2c1)CN(Cc1ccc(C(F)(F)F)cc1)CC3 [2-30, 2-(4-(trifluoromethyl)benzyl)-N-(1-(3-(trifluoromethyl)phenylsulfonyl)piperidin-4-yl)-2,3,4,5-tetrahydro-1H-pyrido[4,3-b]indole-8-carboxamide] was tested. Which EC50 did it give?
Answer: Its EC50 is 1000 to 5000 nM.

Question: How did the EC50 turn out when O=C(NC1CCN(S(=O)(=O)c2cccnc2)CC1)c1ccc2[nH]c3c(c2c1)CN(Cc1ccc(C(F)(F)F)cc1)CC3 [2-22, N-(1-(pyridin-3-ylsulfonyl)piperidin-4-yl)-2-(4-(trifluoromethyl)benzyl)-2,3,4,5-tetrahydro-1H-pyrido[4,3-b]indole-8-carboxamide] was run?
Answer: Its EC50 is 500 to 1000 nM.

Question: How did the EC50 turn out when NC(=O)c1ccc(CN2CCc3[nH]c4ccc(C(=O)NC5CCN(Cc6ccc(C(F)(F)F)cc6)CC5)cc4c3C2)cc1 [2-47, 2-(4-carbamoylbenzyl)-N-(1-(4-(trifluoromethyl)benzyl)piperidin-4-yl)-2,3,4,5-tetrahydro-1H-pyrido[4,3-b]indole-8-carboxamide] was run?
Answer: The EC50 was 10000 to 50000 nM.

same assay, conditions: compounds of Table 4 (Table 9)

Question: N#Cc1ccc(CN2CCC(NC(=O)c3ccc(C(=O)N4CCN(Cc5ccc(C#N)cc5)CC4)cn3)CC2)cc1 [4-1, 5-(4-(4-cyanobenzyl)piperazine-1-carbonyl)-N-(1-(4-cyanobenzyl)piperidin-4-yl)picolinamide] was tested. Which EC50 did it give?
Answer: Its EC50 is < 500 nM.

Question: For O=C(N[C@H]1CCN(Cc2ccc(F)cc2)C1)c1ccc(C(=O)N2CCN(c3ccc(Cl)cc3)CC2)cn1 [4-4, (S)-5-(4-(4-chlorophenyl)piperazine-1-carbonyl)-N-(1-(4-fluorobenzyl)pyrrolidin-3-yl)picolinamide], which EC50 is on record?
Answer: Its EC50 is 1000 to 5000 nM.

same assay, conditions: compounds of Table 5 (Table 10)

Question: Which EC50 does the source give for O=C(NC1CCN(Cc2ccccc2)CC1)c1cc(Cl)c(OC2CCN(Cc3ccc(Cl)cc3)CC2)c(Cl)c1 [5-75, N-(1-benzylpiperidin-4-yl)-3,5-dichloro-4-(1-(4-chlorobenzyl)piperidin-4-yloxy)benzamide] here?
Answer: The EC50 was < 1000 nM.

Question: Which EC50 does the source give for N#Cc1ccc(CN2CCC(Oc3ccc(C(=O)NC4CCN(Cc5ccccn5)CC4)cc3)CC2)cc1 [5-85, 4-(1-(4-cyanobenzyl)piperidin-4-yloxy)-N-(1-(pyridin-2-ylmethyl)piperidin-4-yl)benzamide] here?
Answer: Its EC50 is < 1000 nM.

Question: With O=C(NC1CCN(Cc2ccccc2)CC1)c1cccc(OC2CCN(c3ccncc3)CC2)c1 [5-53, N-(1-benzylpiperidin-4-yl)-3-(1-(pyridin-4-yl)piperidin-4-yloxy)benzamide] as the compound, how does the EC50 read?
Answer: Its EC50 is 10000 to 20000 nM.

Question: How did the EC50 turn out when O=C(NC1CCN(Cc2ccccc2)CC1)c1ccc(OC2CCNCC2)c(Cl)c1 [5-93, N-(1-benzylpiperidin-4-yl)-3-chloro-4-(piperidin-4-yloxy)benzamide] was run?
Answer: The EC50 was > 100000 nM.

Question: How did the EC50 turn out when Cn1cncc1CN1CCC(Oc2ccc(C(=O)NC3CCN(Cc4ccccc4)CC3)cc2)CC1 [5-4, N-(1-benzylpiperidin-4-yl)-4-(1-((1-methyl-1H-imidazol-5-yl)methyl)piperidin-4-yloxy)benzamide] was run?
Answer: The EC50 was > 100000 nM.

Question: With COc1cc(C(=O)NC2CCN(Cc3ccccc3)CC2)ccc1OC1CCN(CCCc2ccccc2)CC1 [5-7, N-(1-benzylpiperidin-4-yl)-3-methoxy-4-(1-(3-phenylpropyl)piperidin-4-yloxy)benzamide] as the compound, how does the EC50 read?
Answer: Its EC50 is < 1000 nM.

Question: CC(c1ccccc1)N1CCC(Oc2ccc(C(=O)NC3CCN(Cc4ccccc4)CC3)cc2F)CC1 (stereo not drawn) [5-21, N-(1-benzylpiperidin-4-yl)-3-fluoro-4-(1-(1-phenylethyl)piperidin-4-yloxy)benzamide] was tested. Which EC50 did it give?
Answer: The EC50 was 1000 to 10000 nM.
